Experimental data: patent US9957234B2, “Polymorphs of Ivacaftor, process for its preparation and pharmaceutical composition thereof” (Laurus Labs Limited, priority 2014, dated 2018)
Where two headings read alike, the source gives them in different places. Blank lines part the entries; values can stand above or below the compound they belong to.

Key:
[1] = Saturation solubility studies in various mediums; assay type: physicochemical
Method: Saturation solubility studies were conducted in various mediums for ivacaftor polymorph Form-L2 and Amorphous form and the data is given in Table III.

[2] = Chemical and polymorphic stability study of Ivacaftor Form-L2 on storage (HPLC, XRD); assay type: physicochemical
Method: Ivacaftor Form L2 is packed in a transparent Low density polyethylene (LDPE) bag with a strip seal, which is again kept in a second transparent low density polyethylene bag with strip seal. The LDPE bag is kept in to a triple laminated sunlight barrier with heat seal followed by in a high density polyethylene container and well closed. The ivacaftor was analyzed using High Performance Liquid Chromatography (“HPLC”) with the conditions are tabulated below: [table]

[3] = stored at 25 ± 2° C./60 ± 5% RH, 1 month
[4] = stored at 25 ± 2° C./60 ± 5% RH, 3 month
[5] = stored at 25 ± 2° C./60 ± 5% RH, Initial
[6] = stored at 40 ± 2° C./75 ± 5% RH, 1 month
[7] = stored at 40 ± 2° C./75 ± 5% RH, 3 month
[8] = stored at 40 ± 2° C./75 ± 5% RH, Initial

solubility ([1]; 0.001N HCl + 0.7% SLS, pH 3.12): 230 µg/mL
solubility ([1]; 0.01N HCl + 0.7% SLS, pH 2.12): 180 µg/mL
solubility ([1]; 50 mM Phosphate buffer + 0.7% SLS, pH 4.60): 190 µg/mL
solubility ([1]; 0.1N HCl + 0.7% SLS, pH 1.10): 120 µg/mL
solubility ([1]; pH 4.5 AB + 0.7% SLS, pH 4.52): 170 µg/mL
solubility ([1]; pH 5.5 PB + 0.7% SLS, pH 5.53): 180 µg/mL
solubility ([1]; pH 6.8 PB + 0.7% SLS, pH 6.80): 180 µg/mL
SMILES: CC(C)(C)c1cc(C(C)(C)C)c(NC(=O)c2c[nH]c3ccccc3c2=O)cc1O [Amorphous form, N-(2,4-di-tert-butyl-5-hydroxyphenyl)-1,4-dihydro-4-oxoquinoline-3-carboxamide, reference compound]

Any major unknown impurity [2, 3]: 0.02 % by HPLC
Description [2, 3]: off-white
Solid form by XRD [2, 3]: Complies
Total impurity [2, 3]: 0.02 % by HPLC
Any major unknown impurity [2, 4]: 0.02 % by HPLC
Description [2, 4]: off-white
Solid form by XRD [2, 4]: Complies
Total impurity [2, 4]: 0.02 % by HPLC
Any major unknown impurity [2, 5]: 0.02 % by HPLC
Description [2, 5]: off-white
Solid form by XRD [2, 5]: Complies
Total impurity [2, 5]: 0.03 % by HPLC
Quinolone acid (Imp-3) ([2]; stored at 25 ± 2° C./60 ± 5% RH, Initial, LOD 0.006%): 0.01 % by HPLC
Any major unknown impurity [2, 6]: 0.01 % by HPLC
Description [2, 6]: off-white
Solid form by XRD [2, 6]: Complies
Total impurity [2, 6]: 0.03 % by HPLC
Any major unknown impurity [2, 7]: 0.01 % by HPLC
Description [2, 7]: off-white
Solid form by XRD [2, 7]: Complies
Total impurity [2, 7]: 0.03 % by HPLC
Any major unknown impurity [2, 8]: 0.02 % by HPLC
Description [2, 8]: off-white
Impurity at RRT 0.59 [2, 8]: 0.01 % by HPLC
Solid form by XRD [2, 8]: Complies
Total impurity [2, 8]: 0.03 % by HPLC
solubility ([1]; 0.001N HCl + 0.7% SLS, pH 3.12, aqueous with cosolvent or surfactant or cyclodextrin, thermodynamic from solid, 0.001N HCl + 0.7% SLS, pH 3.12, read-out: Solubility): 240 µg/mL
solubility ([1]; 0.01N HCl + 0.7% SLS, pH 2.12, aqueous with cosolvent or surfactant or cyclodextrin, thermodynamic from solid, 0.01N HCl + 0.7% SLS, pH 2.12, read-out: Solubility): 260 µg/mL
solubility ([1]; 50 mM Phosphate buffer + 0.7% SLS, pH 4.6, aqueous with cosolvent or surfactant or cyclodextrin, thermodynamic from solid, 50 mM Phosphate buffer + 0.7% SLS, pH 4.60, read-out: Solubility): 380 µg/mL
solubility ([1]; 0.1N HCl + 0.7% SLS, pH 1.1, aqueous with cosolvent or surfactant or cyclodextrin, thermodynamic from solid, 0.1N HCl + 0.7% SLS, pH 1.10, read-out: Solubility): 150 µg/mL
solubility ([1]; pH 4.5 AB + 0.7% SLS, pH 4.52, aqueous with cosolvent or surfactant or cyclodextrin, thermodynamic from solid, pH 4.5 AB + 0.7% SLS, pH 4.52, read-out: Solubility): 310 µg/mL
solubility ([1]; pH 5.5 PB + 0.7% SLS, pH 5.53, aqueous with cosolvent or surfactant or cyclodextrin, thermodynamic from solid, pH 5.5 PB + 0.7% SLS, pH 5.53, read-out: Solubility): 260 µg/mL
solubility ([1]; pH 6.8 PB + 0.7% SLS, pH 6.8, aqueous with cosolvent or surfactant or cyclodextrin, thermodynamic from solid, pH 6.8 PB + 0.7% SLS, pH 6.80, read-out: Solubility): 260 µg/mL
SMILES: CC(C)(C)c1cc(C(C)(C)C)c(NC(=O)c2c[nH]c3ccccc3c2=O)cc1O [Ivacaftor Form-L2, N-(2,4-di-tert-butyl-5-hydroxyphenyl)-1,4-dihydro-4-oxoquinoline-3-carboxamide]
Polymorphic and chemical identity on storage ([2]; different storage condition (25° C./60% RH and 40° C./75% RH)): retained the same polymorphic and chemical identity at least up to three months
Solubility compared to amorphous form ([1]; various mediums, Table III): more solubility when compared to amorphous form
